For data set [1], the system named is mice. The data set is described as follows: Serotonin-induced scratching in mice (animal model for OCD). The class given is in vivo, male Swiss-Webster mice. The method, then: The subjects were male Swiss-Webster mice, 4-6 weeks old, weighing 25-45 g. Mice were housed 5 per cage, given free access to standard mouse food and water except during experiments, and maintained in a temperature-controlled room (70° F.). Serotonin and all test drugs were made up with ascorbic acid to protect against oxidation. Two mice, one a control, the other experimental, were tested each time. Each mouse was separately placed into a plexiglas box.
Mice were injected subcutaneously between the shoulder blades with 0.1 ml of serotonin, 0.4 mg per ml in 0.15 M saline plus ascorbic acid, 1 mg/ml. […] The cumulative number of scratches with a hind leg was recorded at 5 minute intervals for 30 minutes. One saline injected control and one test animal were tested together in each assay.

The subject of data set [2] is mice. The data set is described as follows: Appetite suppression studies in food-deprived mice. The class given is in vivo. Conditions: mice food-deprived 18 hours, i.p.; for % Reduction from control (food consumption): p <0.05 versus saline control. The method, then: Mice were deprived of food, but not water, for 18 hours. They were then injected i.p. with test compounds dissolved in 0.9% NaCl containing 1 mg per ml ascorbic acid for protection against oxidation. Each mouse was placed in an individual cage for 30 minutes and then presented with a small petri dish containing a gel made from gelatin, powdered milk and sucrose. The dish was weighed at zero time and at 15-minute intervals for the next hour in order to quantitate food consumption. Controls were injected with saline-ascorbic acid; ±fenfluramine was used as an active control.

Data set [3] deals with T1, 5-HT2C (Homo sapiens, UniProt P28335).
T1 sequence (P28335 33-458): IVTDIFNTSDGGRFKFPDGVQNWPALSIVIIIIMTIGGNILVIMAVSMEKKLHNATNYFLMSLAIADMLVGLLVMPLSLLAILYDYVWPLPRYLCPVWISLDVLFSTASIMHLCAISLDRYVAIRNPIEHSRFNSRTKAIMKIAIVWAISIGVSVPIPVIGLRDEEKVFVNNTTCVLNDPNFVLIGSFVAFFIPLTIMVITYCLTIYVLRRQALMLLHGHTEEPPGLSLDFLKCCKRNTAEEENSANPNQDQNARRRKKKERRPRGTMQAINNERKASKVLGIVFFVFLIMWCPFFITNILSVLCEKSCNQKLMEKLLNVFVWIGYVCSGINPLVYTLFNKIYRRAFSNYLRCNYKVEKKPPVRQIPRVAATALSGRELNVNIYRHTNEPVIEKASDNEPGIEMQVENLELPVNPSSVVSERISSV
The data set is described as follows: Intracellular calcium flux assay, HEK 293 cells stably expressing 5-HT2C.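 On all read-outs here: calcium dye fluorescence read on FLIPR Tetra as peak signal above baseline within 60 s of compound addition, seven concentrations from 10 pM to 10 µM, each in triplicate.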 The class given is cell-based. More on the design: expressed in transfected cells; host or cells: HEK 293. To be noted: for Emax: HEK293, read-out: 5-HT2C efficacy as percentage of the maximal 5-HT response ± SD, at least three independent experiments, entries marked a (42, 50, 51, 52) single measurements; for EC50: at least three independent experiments, entries marked a (42, 50, 51, 52) single measurements, read-out: 5-HT2C mean EC50 ± SD.

A further data set concerns the target T2, human 5-HT2A receptor (Homo sapiens, UniProt P28223).
T2 construct: expressed in transfected cells; host or cells: HEK 293
The data set is described as follows: Intracellular calcium flux assay, HEK 293 cells stably expressing 5-HT2A.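 On all read-outs here: fluorescent calcium dye read on FLIPR Tetra, peak signal above baseline within 60 s after compound addition, seven concentrations spanning 10 pM to 10 µM.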 The class given is cell-based. Conditions: for Emax at 10 µM: HEK293, read-out: 5-HT2A functional activity (N/A class). (Calcium flux is commonly read through the fluorescence of an indicator in the cells.)

Another data set concerns the target T3, human 5-HT2B receptor (Homo sapiens, UniProt P41595).
T3 construct: expressed in transfected cells; host or cells: HEK 293
The data set is described as follows: Intracellular calcium flux assay, HEK 293 cells stably expressing 5-HT2B.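 Further: calcium dye fluorescence read on a FLIPR Tetra, peak signal above baseline within 60 s after compound addition, seven-point concentration series from 10 pM up to 10 µM.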 Conditions: HEK293; at 10,000 nM; read-out: 5-HT2B functional activity (N/A class). The class given is cell-based.

The target of data set [4] is T1, 5-HT2C. To be noted: cited from earlier work.
[5] abbreviates: i.p. 5 minutes before serotonin s.c., 3 mg/kg.
Where [6] appears, read: i.p., 3 mg/kg, p <0.05 versus saline control (*p = 0.09).
Setting [7] is: i.p. 5 minutes before serotonin s.c., 10 mg/kg.
Where [8] appears, read: i.p., 10 mg/kg, p <0.05 versus saline control.

SMILES strings stand for the structures.

T3 sequence (P41595 whole entry): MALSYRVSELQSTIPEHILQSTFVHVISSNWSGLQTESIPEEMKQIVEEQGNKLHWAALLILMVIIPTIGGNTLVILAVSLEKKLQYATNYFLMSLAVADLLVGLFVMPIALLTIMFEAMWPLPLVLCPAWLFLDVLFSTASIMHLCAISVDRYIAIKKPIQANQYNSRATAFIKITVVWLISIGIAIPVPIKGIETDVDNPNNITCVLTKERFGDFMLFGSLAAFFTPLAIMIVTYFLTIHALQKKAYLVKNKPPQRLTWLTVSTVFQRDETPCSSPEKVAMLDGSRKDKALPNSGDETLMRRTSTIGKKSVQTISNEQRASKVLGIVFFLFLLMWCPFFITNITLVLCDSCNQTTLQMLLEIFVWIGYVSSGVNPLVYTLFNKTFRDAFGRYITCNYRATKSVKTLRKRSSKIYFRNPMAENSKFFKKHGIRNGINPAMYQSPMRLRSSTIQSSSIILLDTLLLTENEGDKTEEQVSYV
T2 sequence (P28223 whole entry): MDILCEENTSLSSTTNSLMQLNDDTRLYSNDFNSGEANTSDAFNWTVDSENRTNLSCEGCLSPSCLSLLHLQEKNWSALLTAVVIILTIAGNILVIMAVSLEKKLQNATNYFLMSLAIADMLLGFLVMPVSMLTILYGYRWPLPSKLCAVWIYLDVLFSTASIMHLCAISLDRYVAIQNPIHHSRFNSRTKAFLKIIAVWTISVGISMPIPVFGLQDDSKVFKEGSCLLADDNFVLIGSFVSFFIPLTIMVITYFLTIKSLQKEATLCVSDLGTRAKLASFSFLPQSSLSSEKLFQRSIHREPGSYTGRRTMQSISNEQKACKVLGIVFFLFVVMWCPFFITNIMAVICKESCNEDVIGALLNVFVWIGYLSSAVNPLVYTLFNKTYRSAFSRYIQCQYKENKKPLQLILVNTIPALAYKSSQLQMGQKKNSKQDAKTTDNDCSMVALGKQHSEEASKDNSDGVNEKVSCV

In the case of `CCNC(C)Cc1cccc(C(F)(F)F)c1` (racemic) [(±)-Fenfluramine, reference compound], the “Average Number of Scratches 30 min. after injection (±SEM)” value (shortened to “Average Number … (±SEM)”) in the data set on mice [1] (setting [5]) is listed as 22.8 ± 11.7; with mice [1] (oral gavage, 10 mg/kg), 35 ± 25.8. Besides, the “% Reduction from control (scratches)” value was found to be 95% in the data set on mice [1] (setting [6]) and 94% in the data set with mice [1] (oral gavage, 10 mg/kg, p < 0.05). In addition, the “Mean food consumption 60 min. after injection: g (±SEM) Compound” value in the data set with mice [2] (5 mg/kg) is reported as 0.90 (.04) g; with mice [2] (10 mg/kg), 0.41 (.11) g. Further, the “% Reduction from control (food consumption)” value with mice [2] (5 mg/kg) came out at 39%; in the data set on mice [2] (10 mg/kg), 69%.
Consider `COc1ccc(F)c2c1c(CCN(C)C)cn2C` [Compound 22, 2-(7-Fluoro-4-methoxy-1-methyl-1H-indol-3-yl)-N,N-dimethylethanamine], for which the “Average Number … (±SEM)” value came to 4.7 ± 4.7 in the data set with mice [1] (setting [7]) and 102 ± 50.8 in the data set with mice [1] (oral gavage, 20 mg/kg). In addition, the “% Reduction from control (scratches)” value was found to be 98.5% in the data set on mice [1] (setting [8]) and 83% with mice [1] (oral gavage, 20 mg/kg, p < 0.05). Moreover, on 5-HT2C [3], the Emax worked out at 82%. Also, the EC50 (usually the midpoint of the concentration-response curve) is 9.4 ± 4.9 nM at 5-HT2C [3] and greater than 10000 nM on human 5-HT2A receptor (calcium flux, at least three independent experiments, each in triplicate, read-out: 5-HT2A mean EC50 ± SD). Further, the “Mean food consumption 60 min. after injection: g (±SEM) Compound” value with mice [2] (10 mg/kg) is on record as 0.15 (0.1) g. In addition, the “% Reduction from control (food consumption)” value in the data set on mice [2] (10 mg/kg) stood at 77%. Also, the “5-HT2A response as percentage of the maximal 5-HT response @ 10,000” value at human 5-HT2A receptor (at 10,000 nM, EC50 not reached) is on record as “(21 ± 6 @ 10,000) %”. Further, the Emax at 10 µM at human 5-HT2B receptor is less than 10%.
Turning to `COc1c(F)ccc2c1c(CCN(C)C)cn2C.Cl` [Compound 40, 2-(5-Fluoro-4-methoxy-1-methyl-1H-indol-3-yl)-N,N-dimethylethanamine hydrochloride], the melting point (in general, the temperature of the solid-liquid transition) is 183.6 to 186.8 °C. Further, the “Average Number … (±SEM)” value in the data set on mice [1] (setting [5]) stood at 8.2 ± 5.1. Besides, the “% Reduction from control (scratches)” value in the data set with mice [1] (setting [6]) is 97* %. Besides, on 5-HT2C [3], the Emax was 72% and the EC50 turned out to be 3.1 ± 1.2 nM. Further, the Emax at 10 µM at human 5-HT2A receptor (at 10,000 nM) is less than 10%. Moreover, the Emax at 10 µM on human 5-HT2B receptor is less than 10%.
In turn, `CN(C)CCc1cn(C)c2cc(O)c(F)cc12` [Compound 82, 3-[2-(Dimethylamino-ethyl)]-5-fluoro-1-methyl-1H-indol-6-ol] displayed a melting point of 165 to 169 °C. In addition, at 5-HT2C [3], the Emax was 83% and the EC50 is 589 ± 546 nM. For the same compound, the Emax at 10 µM at human 5-HT2A receptor (at 10,000 nM) is less than 10%. The Emax at 10 µM at human 5-HT2B receptor was less than 10%.
The compound `CCCn1cc(CCN(C)C)c2cc(F)c(O)cc21` [Compound 84, 3-[2-(Dimethylamino-ethyl)]-5-fluoro-1-propyl-1H-indol-6-ol] showed a melting point of 157 to 159 °C. For the same compound, at 5-HT2C [3], the Emax came out at 70% and the EC50 is 507 ± 314 nM. Moreover, the Emax at 10 µM at human 5-HT2A receptor (at 10,000 nM) was less than 10%. The Emax at 10 µM at human 5-HT2B receptor was less than 10%.
Consider `CNCCC(Oc1ccc(C(F)(F)F)cc1)c1ccccc1` (stereo not shown) [Fluoxetine, reference compound], for which the “Average Number … (±SEM)” value in the data set on mice [1] (setting [7]) is 154.8 ± 105.2. Moreover, the “% Reduction from control (scratches)” value with mice [1] (setting [8]) was found to be 63.5%.
Turning to `C[C@H](N)Cn1ccc2cc(F)c(Cl)cc21` [Ro 60-0175], the “times more active at 5-HT2C as compared to 5-HT2A” value on 5-HT2C [4] (5-HT2C versus 5-HT2A) was 25 times. Moreover, the “selectivity over 5-HT2B receptors” value on 5-HT2C [4] (5-HT2C versus 5-HT2B) is listed as “not selective”.
